This is an account of results in patent US20190192527A1, “COMPOSITIONS COMPRISING PIKFYVE INHIBITORS AND METHODS RELATED TO INHIBITION OF RANK SIGNALING” (AI Therapeutics, Inc., priority 2016, published 2019).

Structures are written as SMILES.

For one data set, the system named is RAW264.7 macrophages. Nature of the data set: RANKL-induced differentiation of TRAP positive osteoclasts from RAW264.7 macrophages. It counts as cell-based. As to the method:
RAW264.7 macrophages were differentiated with either vehicle or 30 ng/mL RANKL for a total of 5 days. For the last 3 days of differentiation, cells were co-treated with the indicated concentration of apilimod. Cells were subsequently stained for TRAP. Arrows highlight giant TRAP positive, multinucleated osteoclasts.
FIGS. 4A-4B: Inhibition of RANKL-induced differentiation of RAW264.7-derived osteoclasts by apilimod as indicated by a reduction in the number of TRAP-positive multinucleated cells (A) or giant osteoclasts (B). The average of triplicate wells was determined and percentages relative to untreated are shown.
(§1) Apilimod blocked the expression of RANK receptor and the transcription factors MITF, PU.1 and c-Fos in both undifferentiated and RANKL-differentiated RAW264.7 macrophages. Cells were differentiated for a total of 3 days with 30 ng/mL RANKL. On the last day of differentiation cells were co-treated with RANKL and the indicated concentration of apilimod or vehicle for 24h. […] (see FIGS. 5A-5B).

Data set [1] is described as follows: microsomal and hepatocyte stability studies, metabolite identification. Format: in vitro ADME. As to conditions: rat and human microsomal and hepatocyte stability studies. As to the method:
(§2) In embodiments, the apilimod for use in the compositions and methods of the invention is the free base or dimesylate salt form, MW 610.7 (dimesylate salt); tPSA 83.1; pKa 5.39 (±0.03), 4.54 (±0.27); HBD 1. […] In embodiments, an active metabolite of apilimod may be used. […] Tmax generally occurred within 1 or 2 hours after the oral dose, consistent with the rapid […] of this compound from the circulation. […] The primary metabolites are short-lived in circulation. Both apilimod free base and the dimesylate salt are highly bound ([…]) to rat, dog and human plasma proteins.

A further data set concerns MPC-11 tumor cells. Nature of the data set: systemic MPC-11 syngeneic model of multiple myeloma. Format: in vivo, mouse. The source says:
To determine if apilimod inhibition of RANKL/RANK signaling blocks the bone growth of multiple myeloma cells in vivo, the systemic MPC-11 syngeneic model was used (Laskov R et al. J Exp Med. 1970 131(3):515-41; Ferguson V L et al. Bone. 2002 30(1): 109-116). In this model, animals develop hind limb paralysis due to infiltration of multiple myeloma cells into the vertebrae that compresses the spinal column. In brief, MPC-11 tumor cells were maintained in vitro in DMEM medium supplemented with 10% horse serum at 37° C. in 5% CO2. Each mouse was then injected via the tail vein with MPC-11 tumor cells (1×10^6) in 0.1 ml of PBS for tumor development. The regimen of dosing is detailed in Table 1. At 4 days post-tumor inoculation, mice were orally administered with a vehicle or apilimod dimesylate (70 mg/kg) twice a day up to 35 days. Survival rate of vehicle-treated animal group (n=10) and apilimod-treated animal group (n=10) were monitored as an indicator of hind limb paralysis.
To directly examine the effect of apilimod on the MPC-11 tumor burden in bone, immunohistochemical staining was performed. Femurs from the in vivo experiment were fixed in 10% formalin and then rinsed in 70% ethanol and dehydrated in acetone before embedding in methacrylate. 4 μm sections were then stained in 2% Toluidine blue. […] Orange boxed region on left panel is shown at 40× magnification in the right panel. Note total effacement of bone marrow architecture and replacement with MPC-11 tumor cells in top panel. […] This effect was quantitated by generating paraffin sections from tibias of the animals and staining the sections with the multiple myeloma marker CD138 (BioLegend antibody, Clone 281-2). Values for CD138 positive staining were obtained by measuring within in a pre-defined Region of Interest (ROI) defined as 1.17 millimeter square, 200 micrometer below the tibia proximal growth plate. CD138 positive staining was measured according to standard protocols (Dempster D W et al. J Clin Endocrinol Metab. 2012 97(8):2799-2808).

Another data set deals with osteoclast formation. The settings on record: in vitro assay, described in WO 2005/000404; read-out: IC50, inhibitory activity against osteoclast formation; cited from earlier work.
The subject of data set [2] is RANK, c-Fos, MITF, PU.1, TRAF6, OPG. Nature of the data set: RNA expression of osteogenic factors by quantitative PCR in RAW264.7 macrophages. The settings on record: undifferentiated and RANKL-differentiated (30 ng/mL, 3 days) cells, apilimod 24h. It counts as cell-based.
Source text: FIG. 5A-5B: Effect of apilimod treatment on the RNA expression of osteogenic factors RANK, c-Fos, microphthalmia-associated transcription factor (MITF), PU.1, TNF receptor associated factor 6 (TRAF6) and osteoprotegerin (OPG) in undifferentiated (A) or differentiated (B) RAW264.7 macrophages as assessed by quantitative PCR.
as §1

For another data set, the system named is WSU-DLCL2B cell lymphoma. Nature of the data set: viability (CellTiter Glo) of CRISPR guide RNA cell pools treated with apilimod. Format: cell-based. The settings on record: treated for 3 days. As to the method:
Pools cells containing guide RNAs targeted against either the indicated genes or non-targeting (NT) guide RNAs were treated with apilimod for 3 days and viability was assayed by CellTiter Glo (Promega).
A genome-wide CRISPR screen for factors conferring resistance of B-cell lymphoma to apilimod uncovered the lysosomal regulator TFEB as well as the lysosomal and osteopetrosis-associated genes CLCN7, OSTM1, and SNX10 as mediators of apilimod-induced cytotoxicity (see FIGS. 1A-1D).
(In ATP-based viability assays light output follows the ATP content of the culture.)

In a further data set the test system is CYP3A4, CYP1A2, CYP2D6. Nature of the data set: reaction phenotyping studies. It counts as in vitro ADME. As to the method: as §2
A further data set can be described thus: pKa. Format: physicochemical.
The test system of data set [3] is periodontal bone resorption. Briefly: rat periodontal disease model. Format: in vivo. As to the method: FIGS. 6A-6B: Graphical representation of the effect of apilimod on periodontal bone resorption (A). Daily oral doses of apilimod (8 and 20 mg/kg) reduce bone loss (B).
Moreover, apilimod was active in inhibiting in vivo osteoclast activity in a rat periodontal disease model (see FIGS. 6A-6B). In brief, Th-1 type clonal cells specific for Actinobacillus actinomycetemcomitans (Aa) 29-kDa outer membrane protein (Omp29) were activated by incubation with formalin-killed Aa and irradiated syngeneic rat spleen cells. These activated cells were then transferred intravenously through the rat tail vein (1.0×10^7 cells) into the rat. On the same day, the antigen Omp29 was injected with LPS into the left palatal maxilla gingiva; and saline was injected into the right palatal maxilla gingiva, for control measurements. Apilimod was given orally in daily doses of 8 and 20 mg/kg from the day of the induction until day 10. At the end of the ten day period, animals were sacrificed and their jaws were defleshed to allow the assessment of periodontal bone resorption, calculated as the ratio of the difference in cemento-enamel junction (CEJ-AL) distance between left and right sides versus CEJ-AL distance of right.

A further data set deals with Cathepsin K. Nature of the data set: Cathepsin K maturation, western blot in RAW 264.7-derived osteoclasts. It counts as cell-based. The settings on record: differentiated with 30 ng/ml RANKL 4 days, then RANKL and apilimod 24 hours. As to the method: RAW264.7 macrophages were differentiated with 30 ng/ml RANKL for 4 days and subsequently treated with RANKL and the indicated concentration of apilimod for 24 hours prior to harvesting lysates and performing western blot for the indicated protein.

Setting [4] is: RANKL-induced differentiation, relative to untreated.
[5] abbreviates: tibia sections, ROI 1.17 millimeter square, n = 5, apilimod dimesylate 70 mg/kg p.o. BID.

For orientation: IC50 means the concentration that gives 50% inhibition. One may read the pKa as the negative logarithm of the acid dissociation constant. A high value points to a weaker acid or stronger base. Turning to `Cc1cccc(/C=N/Nc2cc(N3CCOCC3)nc(OCCc3ccccn3)n2)c1` [apilimod], the RANKL-stimulated osteoclastogenesis result in the data set with RAW264.7 macrophages (30 ng/mL RANKL 5 days, apilimod for the last 3 days, TRAP staining) was “potently blocked”. Moreover, in the data set with RAW264.7 macrophages (setting [4]), the “number of TRAP-positive multinucleated cells” value is “reduction” and the “number of giant osteoclasts” value is “reduction”. For the same compound, in data set [1], the primary metabolites identified result is “Six primary metabolites”. In the data set on MPC-11 tumor cells (apilimod dimesylate 70 mg/kg p.o. BID), the “invasion of myeloma cells in femur marrow, toluidine blue staining, qualitative” value was “minimal invasion”. Also, in the data set with MPC-11 tumor cells (apilimod dimesylate 70 mg/kg p.o. twice a day up to 35 days, n=10), the “animals with hind limb paralysis” value is given as “none”. Also, in the data set with MPC-11 tumor cells (setting [5]), the “Tumor Area, CD138 staining” value is 0.012 ± 0.03 mm^2 and the “Tumor Area/ Tissue Area, CD138 staining” value was found to be 0.010 ± 0.02%. Also, the IC50 in the data set with osteoclast formation is 0.015 µM. Also, in [2], the “RNA expression of RANK, c-Fos, MITF, and PU.1” value is given as “Decreases were observed”; the “RNA expression of TRAF6 or OPG” value is “Significant decreases were not observed”. Further, the “effect of CRISPR-induced loss of CLCN7, OSTM1, SNX10, TFEB on viability under apilimod” value with WSU-DLCL2B cell lymphoma is listed as “confer resistance to apilimod”. In the data set on CYP3A4, CYP1A2, CYP2D6, the “enzymes that contribute to metabolism” value was “CYP3A4 and to a lesser extent CYP1A2 and/or CYP2D6”. In addition, the pKa in the data set “pKa” was 5.39. Also, the “protection against Th1-mediated bone loss (periodontal bone resorption)” value in data set [3] (8 mg/kg orally daily until day 10) is “significant protection”. Further, the “protection against Th1-mediated bone loss (periodontal bone resorption)” value in data set [3] (20 mg/kg orally daily until day 10) was “significant protection”. The “cathepsin K processing (maturation)” value with Cathepsin K was “inhibition of cathepsin K processing”.
